Common to all, as to assay type: functional
The subject of assay [1] is Escherichia coli. Briefly: Antimicrobial activity against ESBL producing Escherichia coli isolated from patient bloodstream assessed as resistant isolate by Etest method.
Assay [2] concerns Escherichia coli. Briefly: Antimicrobial activity against ESBL producing Escherichia coli isolated from patient bloodstream assessed as resistant isolate by Etest method in presence of clavulanic acid.
The test system of assay [3] is Escherichia coli. Briefly: Antimicrobial activity against ESBL producing Escherichia coli isolated from patient bloodstream assessed as resistant isolate by Etest method in presence of Tazobactam.

As to `NCC[C@H](O)C(=O)N[C@@H]1C[C@H](N)[C@@H](O[C@H]2O[C@H](CN)[C@@H](O)[C@H](O)[C@H]2O)[C@H](O)[C@H]1O[C@H]1O[C@H](CO)[C@@H](O)[C@H](N)[C@H]1O` [AMIKACIN], in the assay on Escherichia coli [1], the Activity worked out at 0%.

For `CC1(C)S[C@@H]2[C@H](NC(=O)[C@H](N)c3ccc(O)cc3)C(=O)N2[C@H]1C(=O)O` [AMOXICILLIN], the Activity in the assay with Escherichia coli [2] came out at 30.2%.

On to `O=C(O)c1cn(C2CC2)c2cc(N3CCNCC3)c(F)cc2c1=O` [CIPROFLOXACIN], for which the Activity in the assay with Escherichia coli [1] worked out at 92.2%.

`C[C@@H](O)[C@H]1C(=O)N2C(C(=O)O)=C(SCCNC=N)C[C@H]12` [IMIPENEM ANHYDROUS]: the Activity with Escherichia coli [1] is listed as 0%.

As for `C[C@H]1COc2c(N3CCN(C)CC3)c(F)cc3c(=O)c(C(=O)O)cn1c23.C[C@H]1COc2c(N3CCN(C)CC3)c(F)cc3c(=O)c(C(=O)O)cn1c23.O` [LEVOFLOXACIN], in the assay on Escherichia coli [1], the Activity is 92.2%.

Take `C[C@@H](O)[C@H]1C(=O)N2C(C(=O)O)=C(S[C@@H]3CN[C@H](C(=O)N(C)C)C3)[C@H](C)[C@H]12` [MEROPENEM]: the Activity with Escherichia coli [1] amounted to 0%.

`C[C@]1(Cn2ccnn2)[C@H](C(=O)O)N2C(=O)C[C@H]2S1(=O)=O` [TAZOBACTAM]: in the assay on Escherichia coli [3], the Activity came to 15.5%.

Turning to GENTAMICIN, in the assay on Escherichia coli [1], the Activity amounted to 33.3%.

These data come from ChEMBL document CHEMBL1671616, “Bloodstream infections caused by extended-spectrum-beta-lactamase- producing Escherichia coli: risk factors for inadequate initial antimicrobial therapy” (2008).
